The nature of the series: Measurement of solubility in methyl benzoate (Evaluation Example 1). The format is physicochemical. As to conditions: for solubility in an organic solvent, as compared with host-c: qualitative statement referring to Table 1; for Solubility: solvent methyl benzoate, room temperature, ultrasonic irradiation, visual check. How it is done:
50 milligrams (mg) of Compound 1-1 and 450 mg of methyl benzoate (solvent) were added to a colorless sample bottle, the mixture was irradiated with ultrasonic waves at room temperature for 5 minutes, and the presence or absence of Compound 1-1 was visually confirmed. […] If Compound 1-1 remained, a small amount of the solvent was added, the irradiation with ultrasonic waves was repeated, and an amount of the solvent was measured until Compound 1-1 was completely dissolved. The solubility was calculated from an amount of the solvent finally used. The solubility values of Compound 1-2 and host-c were calculated in the same manner.

Molecules are shown by their SMILES.

Regarding `c1ccc(-c2cccc(-c3cccc(-c4ccc5c(c4)c4ccccc4n5-c4ccc(-c5cccc(-c6cc(-c7ccc(-c8cccc(-c9nc(-c%10ccccc%10)nc(-c%10ccccc%10)n9)c8)cc7)c7oc8ccccc8c7c6)c5)cc4)c3)c2)cc1` [Compound 1-1], the “solubility in an organic solvent, as compared with host-c” value is given as “high solubility” and the Solubility is reported as 4 weight %.
As for `c1ccc(-c2cccc(-c3cccc(-c4ccc5c(c4)c4ccccc4n5-c4ccc(-c5cccc(-c6cc(-c7cccc(-c8cccc(-c9cccc(-c%10nc(-c%11ccccc%11)nc(-c%11ccccc%11)n%10)c9)c8)c7)c7oc8ccccc8c7c6)c5)cc4)c3)c2)cc1` [Compound 1-2], the “solubility in an organic solvent, as compared with host-c” value is “high solubility” and the Solubility was determined as 4 weight %.
In turn, `c1ccc(-c2nc(-c3ccccc3)nc(-c3cc(-n4c5ccccc5c5ccccc54)cc4c3oc3ccccc34)n2)cc1` [host-c, reference compound] gave a Solubility of 0.1 weight %.

The values above are taken from patent US11700767B2, “Condensed cyclic compound, composition including the condensed cyclic compound, and organic light-emitting device including the composition” (SAMSUNG ELECTRONICS CO., LTD., priority 2017, dated 2023).
